Measurements from patent US9675697B2 (THE REGENTS OF THE UNIVERSITY OF MICHIGAN, priority 2013, dated 2017).
Read-outs that look alike come from different tables or passages of the source. Blank lines part the entries; values can stand above or below the compound they belong to.

Columns and labels:
AML-2 = assay: Cell growth inhibition in leukemia cell line; type: cell-based
Experimental: (§1) The effect of representative BET bromodomain inhibitors on cell viability was determined in a 4-day proliferation assay. Cells were maintained in the appropriate culture medium with 10% FBS at 37° C. and an atmosphere of 5% CO2. All the cell lines were used within three months of thawing fresh vials.
(§2) Cells were seeded in 96-well flat bottom (Corning COSTAR, Corning, N.Y., cat#3595) or white opaque cell culture plates (BD Falcon, cat#353296) at a density of 3,000-10,000 cells/well in 75 μl of culture medium. Compounds were serially diluted in the appropriate medium, and 75 μl of the diluted compounds were added to the appropriate wells of the cell plate. After the addition of compounds, the cells were incubated at 37° C. in an atmosphere of 5% CO2 for 4 days. Cell viability was determined using the CellTiter-Glo® Luminescent Cell Viability Assay Kit (Promega, Madison, Wis.) for MOLM-13 cells and WST (2-(2-methoxy-4-nitrophenyl)-3-(4-nitrophenyl)-5-(2,4-disulfophenyl)-2H-tetrazolium, monosodium salt) Cell Counting-8 Kit (Dojindo Molecular Technologies, Inc., Rockville, Md.) for MDA-MB-436 cells according to the manufacturers' instructions.

BRD3 BD2 = BRD3 BD2 (Homo sapiens (Human), UniProt Q15059); assay: FP competitive binding assay using Cpd. No. 350 as the probe
Experimental: (§6) Fluorescence Polarization (FP) competitive binding studies (see above) were carried out using the FAM labeled fluorescent probe Cpd. No. 350 to determine binding affinities of representative compounds to both BD1 and BD2 of BRD2, BRD3, and BRD4 proteins. Equilibrium dissociation constants (Id) values of Cpd. No. 350 to these six proteins were determined from protein saturation experiments by monitoring the total fluorescence polarization of mixtures composed with the fluorescent probe at a fixed concentration and proteins with increasing concentrations up to full saturation. Serial dilutions of testing protein were mixed with Cpd. No. 350 to a final volume of 200 μl in the assay buffer. […] Plates were incubated at room temperature for 30 minutes with gentle shaking to assure equilibrium. […] Kd values of Cpd.
(§7) The IC50 and Ki values of compounds were determined in a competitive binding experiment as described above. […] FP values were measured as described above. IC50 values were determined by nonlinear regression fitting of the competition curves.

MV4;11 = assay: Cell growth inhibition in leukemia cell line; type: cell-based; conditions: Homo sapiens, MV4-11, cell growth inhibition
K562 = assay: Cell growth inhibition in leukemia cell line; type: cell-based; conditions: Homo sapiens
BRD4 BD2 [1] = target: T1, BRD4 BD2 (Homo sapiens (Human), UniProt O60885); assay: FP competitive binding assay (BRD-1F probe); conditions: for IC50: BRD-1F probe 5 nM, protein 200 nM; for Ki: BRD-1F probe, calculated from IC50
Experimental: (§3) The FAM labeled fluorescent probe (BRD-1F) was synthesized based on a known small-molecule BET bromodomain inhibitor. […] Final BRD-1F concentration was 5 nM. Plates were incubated at room temperature for 1-2 hours with gentle shaking to assure equilibrium.
(§4) Final probe concentration is 5 nM in all assays. […] FP values were measured as described above.

BRD2 BD2 [2] = target: T2, BRD2 BD2 (Homo sapiens (Human), UniProt P25440); assay: FP competitive binding assay (BRD-1F probe); conditions: for IC50: BRD-1F probe 5 nM, protein 200 nM; for Ki: BRD-1F probe, calculated from IC50
Experimental: as §3, §4

BRD2 BD2 [3] = target: T2, BRD2 BD2; assay: FP competitive binding assay using Cpd. No. 350 as the probe
Experimental: as §6, §7

BRD2 BD1 = BRD2 BD1 (Homo sapiens (Human), UniProt P25440); assay: as above
BRD4 BD1 = BRD4 BD1 (Homo sapiens (Human), UniProt O60885); assay: as above
Experimental: as §6, §7

[4] = tested on: leukemia MOLM-13 cell line; assay: 4-day cell viability assay, CellTiter-Glo; type: cell-based; conditions: Homo sapiens, MOLM-13, 96 h; 4 days; read-out: Cell Growth Inhibition (IC50 (nM)) MOLM-13 Cell Line (CellTiter-Glo assay)
Experimental: as §1, §2
For the CellTiter-Glo assay, 100 μl of CellTiter-Glo® Reagent was added to each well, and then the plates were incubated at room temperature for 10-20 minutes. The luminescent signal was measured using a Tecan Infinite M1000 multimode microplate reader (Tecan, Morrisville, N.C.). The readings were normalized to the DMSO-treated cells and the IC50 was calculated by nonlinear regression (four parameters sigmoid fitted with variable slope, least squares fit, and no constraint) analysis using the GraphPad Prism 5 software.

BRD4 BD2 [5] = target: T1, BRD4 BD2; assay: FP competitive binding assay using Cpd. No. 350 as the probe
Experimental: as §6, §7

BRD3 BD1 = BRD3 BD1 (Homo sapiens (Human), UniProt Q15059); assay: as above
Experimental: as §6, §7

MOLM-13 = assay: Cell growth inhibition, CellTiter-Glo, acute leukemia cell line; type: cell-based; conditions: Homo sapiens, MOLM-13, 96 h, 4 days
Experimental: (§5) Cell growth inhibitory activity of representative BET bromodomain inhibitors was determined using CellTiter-Glo® Luminescent Cell Viability Assay. For leukemia cell lines MV-4-11 (ATCC, Manassas, Va.) and MOLM-13 (DSMZ, Germany), cells were seeded in 96-well white opaque cell culture plates at a density of 10,000 cells/well with serially diluted compounds and incubated at 37° C. in an atmosphere of 95% air and 5% CO2 for 4 days. Cell viability was determined using the CellTiter-Glo® Luminescent Cell Viability Assay Kit (Promega, Madison, Wis.) according to the manufacture's instruction. Briefly, a volume of CellTiter-Glo® Reagent equal to the volume of cell culture medium was added to each well, and then the plates were incubated at room temperature for 10-20 minutes. The luminescent signal was measured using a Tecan Infinite M1000 multimode microplate reader (Tecan, Morrisville, N.C.). The half maximal inhibitory concentration (IC50) was calculated using the GraphPad Prism 5 software (GraphPad Software, La Jolla, Calif.).

MV-4-11 = assay: as above; type: cell-based; conditions: Homo sapiens, MV4-11, 96 h, 4 days
Experimental: as §5

prostate VCaP cell line = assay: Cell growth inhibition, Cell TiterGLO, 4 days; type: cell-based; conditions: treated 4 days, read-out: VCaP cells (IC50 (nM))
[6] = read-out: BRD3 BD2 Ki, FP, Cpd. No. 350 probe […]
[7] = read-out: BRD2 BD2 Ki, FP, Cpd. No. 350 probe […]
[8] = read-out: BRD2 BD1 Ki, FP, Cpd. No. 350 probe […]
[9] = read-out: BRD4 BD1 Ki, FP, Cpd. No. 350 probe […]
[10] = read-out: BRD4 BD2 Ki, FP, Cpd. No. 350 probe […]
[11] = read-out: BRD3 BD1 Ki, FP, Cpd. No. 350 probe […]

T2 sequence (P25440 344-453): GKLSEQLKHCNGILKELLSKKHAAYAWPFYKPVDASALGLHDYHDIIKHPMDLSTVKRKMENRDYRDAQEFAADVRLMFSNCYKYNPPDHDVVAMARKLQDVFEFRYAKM
Sequence of BRD2 BD1 (P25440 74-180): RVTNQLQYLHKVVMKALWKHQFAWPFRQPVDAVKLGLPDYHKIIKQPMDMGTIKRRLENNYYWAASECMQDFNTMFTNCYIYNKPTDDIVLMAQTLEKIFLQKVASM
Sequence of BRD3 BD2 (Q15059 306-415): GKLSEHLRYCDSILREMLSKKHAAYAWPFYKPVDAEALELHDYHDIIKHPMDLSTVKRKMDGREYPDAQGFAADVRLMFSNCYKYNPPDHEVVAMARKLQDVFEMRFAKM
Sequence of BRD3 BD1 (Q15059 34-140): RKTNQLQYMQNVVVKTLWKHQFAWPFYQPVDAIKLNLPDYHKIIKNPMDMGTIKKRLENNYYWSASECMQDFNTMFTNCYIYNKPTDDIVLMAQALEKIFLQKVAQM

Structure (SMILES): COc1cc2c(cc1-c1c(C)noc1C)[nH]c1ccnc(-c3cn[nH]c3)c12
IC50 (AML-2): 217 ± 61 nM
Ki (BRD3 BD2; [6]): 0.0487 ± 0.0033 µM
IC50 (MV4;11): 1070 ± 195 nM
IC50 (K562): > 2000 nM
IC50 (BRD4 BD2 [1]): 0.608 ± 0.244 µM
Ki (BRD4 BD2 [1]): 0.114 ± 0.087 µM
IC50 (BRD2 BD2 [2]): 0.286 ± 0.125 µM
Ki (BRD2 BD2 [2]): 0.0423 ± 0.032 µM
Ki (BRD2 BD2 [3]; [7]): 0.0897 ± 0.0064 µM
Ki (BRD2 BD1; [8]): 0.138 ± 0.008 µM
Ki (BRD4 BD1; [9]): 0.247 ± 0.029 µM
IC50 [4]: 1040 ± 158 nM
Ki (BRD4 BD2 [5]; [10]): 0.201 ± 0.005 µM
Ki (BRD3 BD1; [11]): 0.151 ± 0.02 µM

Structure (SMILES): COc1cc2c(cc1-c1c(C)noc1C)[nH]c1ccnc(-c3c(C)n[nH]c3C)c12
IC50 (MOLM-13): < 500 nM
IC50 (MV-4-11): < 100 nM
IC50 (BRD2 BD2 [2]): 0.0928 ± 0.0308 µM
Ki (BRD2 BD2 [2]): < 0.01 µM
Ki (BRD2 BD2 [3]; [7]): 0.0577 ± 0.0081 µM
Ki (BRD2 BD1; [8]): 0.0483 ± 0.0013 µM
IC50 [4]: 311 ± 12 nM

Structure (SMILES): COc1cc2c(cc1-c1c(C)noc1C)[nH]c1ccncc12 [Cpd. No. 1, 4-(8-methoxy-5H-pyrido[4,3-b]indol-7-yl)-3,5-dimethylisoxazole]
IC50 (AML-2): 148 ± 64 nM
Ki (BRD3 BD2): 0.0143 ± 0.0005 µM
IC50 (MV4;11): 178 ± 114 nM
IC50 (K562): > 2000 nM
Ki (BRD2 BD2 [3]): 0.0345 ± 0.0021 µM
Ki (BRD2 BD1): 0.0316 ± 0.0082 µM
Ki (BRD4 BD1): 0.0478 ± 0.001 µM
IC50 [4]: 550 ± 303 nM
Ki (BRD4 BD2 [5]): 0.0701 ± 0.002 µM
Ki (BRD3 BD1): 0.0147 ± 0.001 µM

Structure (SMILES): COc1cc2c(cc1-c1c(C)n[nH]c1C)[nH]c1ccnc(-c3c(C)n[nH]c3C)c12 [Cpd. No. 34, 1,7-bis(3,5-dimethyl-1H-pyrazol-4-yl)-8-methoxy-5H-pyrido[4,3-b]indole]
IC50 (BRD4 BD2 [1]): 3.67 µM
Ki (BRD4 BD2 [1]): 0.775 µM
IC50 (BRD2 BD2 [2]): 3.2 µM
Ki (BRD2 BD2 [2]): 1.2 µM

Structure (SMILES): COc1cc2c(cc1-c1c(C)noc1C)[nH]c1nc(C)nc(-c3ccnc4ccccc34)c12 [Cpd. No. 73]
Ki (BRD3 BD2; [6]): 0.0026 µM
Ki (BRD2 BD2 [3]; [7]): 0.0087 µM
IC50 (prostate VCaP cell line; Homo sapiens, VCaP, 96 h): 156 nM
Ki (BRD2 BD1; [8]): 0.0155 µM
Ki (BRD4 BD1; [9]): 0.0353 µM
Ki (BRD4 BD2 [5]; [10]): 0.0078 µM
Ki (BRD3 BD1; [11]): 0.0102 µM

Structure (SMILES): COc1cc2c(cc1-c1c(C)noc1C)ncc1[nH]c(=O)n([C@H](C)c3ccccn3)c12 [I-BET151, reference compound]
IC50 (prostate VCaP cell line; Homo sapiens, VCaP, 96 h): 862 nM

Structure (SMILES): CCNC(=O)C[C@@H]1N=C(c2ccc(Cl)cc2)c2cc(OC)ccc2-n2c(C)nnc21 [I-BET762, reference compound]
IC50 (prostate VCaP cell line; Homo sapiens, VCaP, 96 h): 500 nM

Structure (SMILES): Cc1sc2c(c1C)C(c1ccc(Cl)cc1)=N[C@@H](CC(=O)OC(C)(C)C)c1nnc(C)n1-2 [JQ1, reference compound]
IC50 (prostate VCaP cell line): 48 nM

Structure (SMILES): COc1cc2c(cc1-c1c(C)noc1C)[nH]c1ccncc12 [RX-7]
Ki (BRD3 BD2; [6]): 0.241 ± 0.006 µM
IC50 (BRD4 BD2 [1]): 2.9 µM
Ki (BRD4 BD2 [1]): 0.85 µM
IC50 (BRD2 BD2 [2]): 1.35 ± 0.212 µM
Ki (BRD2 BD2 [2]): 0.366 ± 0.082 µM
Ki (BRD2 BD2 [3]; [7]): 0.498 ± 0.011 µM
Ki (BRD2 BD1; [8]): 0.65 ± 0.125 µM
Ki (BRD4 BD1; [9]): 1.64 ± 0.071 µM
Ki (BRD4 BD2 [5]; [10]): 0.824 ± 0.025 µM
Ki (BRD3 BD1; [11]): 0.73 ± 0.146 µM

The next lines start with the values.

IC50 (BRD4 BD2 [1]): 0.514 µM
Ki (BRD4 BD2 [1]): 0.0834 µM
IC50 (BRD2 BD2 [2]): 0.255 ± 0.114 µM
Ki (BRD2 BD2 [2]): 0.0349 ± 0.0212 µM
Structure (SMILES): COc1cc2c(cc1-c1c(C)noc1C)[nH]c1ccnc(-c3ccccc3)c12

IC50 (BRD4 BD2 [1]): 0.873 µM
Ki (BRD4 BD2 [1]): 0.232 µM
IC50 (BRD2 BD2 [2]): 0.349 µM
Ki (BRD2 BD2 [2]): 0.0574 µM
Structure (SMILES): COc1cc2c(cc1-c1c(C)noc1C)[nH]c1ccnc(-c3cccnc3)c12

IC50 (AML-2): 173 ± 89 nM
Ki (BRD3 BD2): 0.0509 ± 0.0058 µM
IC50 (MV4;11): 83 ± 41 nM
IC50 (K562): > 2000 nM
Ki (BRD2 BD2 [3]): 0.0921 ± 0.0033 µM
Ki (BRD2 BD1): 0.0584 ± 0.001 µM
Ki (BRD4 BD1): 0.116 ± 0.005 µM
IC50 [4]: 280 ± 35 nM
Ki (BRD4 BD2 [5]): 0.134 ± 0.042 µM
Ki (BRD3 BD1): 0.0382 ± 0.001 µM
Structure (SMILES): COc1cc2c(cc1-c1c(C)noc1C)[nH]c1ccnc(-c3c(C4CC4)n[nH]c3C)c12 [Cpd. No. 24, 4-(1-(3-cyclopropyl-5-methyl-1H-pyrazol-4-yl)-8-methoxy-5H-pyrido[4,3-b]indol-7-yl)-3,5-dimethylisoxazole]

IC50 (MOLM-13): < 500 nM
IC50 (MV-4-11): < 100 nM
Structure (SMILES): COc1cc2c(cc1-c1c(C)noc1C)[nH]c1ncnc(-c3c(C)n[nH]c3C)c12 [Cpd. No. 38]

IC50 (prostate VCaP cell line; Homo sapiens, VCaP, 96 h): 20 nM
Structure (SMILES): COc1cc2c(cc1-c1c(C)noc1C)[nH]c1nc(C)nc(-c3ccnc4ccc(Cl)cc34)c12 [Cpd. No. 90]

IC50 (prostate VCaP cell line; Homo sapiens, VCaP, 96 h): 25 nM
Structure (SMILES): COc1cc2c(cc1-c1c(C)noc1C)[nH]c1nc(C)nc(-c3cc(NCCN(C)C)nc4ccccc34)c12 [Cpd. No. 101]
